These results are taken from patent publication US20260167622A1, “PAN-KRAS DEGRADING AGENT, AND PREPARATION METHOD THEREFOR AND USE THEREOF” (LEADINGTAC PHARMACEUTICAL (SHAOXING) CO., LTD., priority 2022, published 2026).

What all share (assay type): cell-based
Experiment [1] concerns KRAS G12V mutant human lung squamous carcinoma cell SW900. Kind of experiment: 3D cell proliferation inhibition assay, SW900. As to conditions: SW900, 168 h, 3D culture, 7 days, CTG. The source says:
(§1) Test Example 6: 3D Cell Proliferation Inhibition Assay
(§2) The inhibitory effects of the compounds on 3D cell proliferation were investigated on KRAS G12C mutant human non-small cell lung cancer cell NCI-H358, KRAS G12D mutant human lung cancer cell A427, KRAS G12D mutant human gastric cancer cell AGS, KRAS G12D mutant human metastatic pancreatic cancer cell AsPc-1, KRAS G12V mutant human lung squamous carcinoma cell SW900, KRAS G12V mutant human colorectal cancer cell SW620, KRAS G13D mutant human colorectal cancer epithelial cell DLD-1, and KRAS WT human gastric cancer cell MKN1. The specific procedures were as follows:
(§3) 10 μL of each compound solution diluted in a gradient was added to corresponding wells of a 96-well low-adsorption microplate (PerkinElmer), so that the final concentrations of the test compounds in the reaction system were in a range of 10000-0.026 nM. The final concentration of DMSO was 0.2%. Then 90 µL of cells were correspondingly seeded into each well to achieve a cell density of 5×10^2 cells/well (the cell density of SW900 was 5×10^3 cells/well, and the cell density of MKN1 was 1×10^3 cells/well). In addition to test wells for the test compounds, both a DMSO control well and a medium control well were set, with the DMSO control well containing DMSO and cells and the medium well containing only a medium. After the sample loading, the 96-well low-adsorption microplate was incubated in an incubator at 37° C. with […] for 7 days. After 7 days, the microplate was taken out, and 100 μL of CTG reagent (Promega) was added to each well. The plate was incubated at room temperature for 60 m and read on a microplate reader EnVision by the chemiluminescence program. The inhibition rates of the compounds at each concentration were calculated using the formula for the percentage inhibition of cell proliferation: inhibition rate 00=(mean value of DMSO control group−single concentration reading value of compound)/(mean value of DMSO control group−mean value of medium control group)×100. Then non-linear curve fillings for logarithmic concentration-inhibition rate were performed by GraphPad Prism 8, and the IC50 values of the compounds were obtained (Table 6).

Experiment [2] concerns KRAS G12V mutant human colorectal cancer cell SW620. Briefly: 3D cell proliferation inhibition assay, SW620. The conditions noted are these: SW-620, 168 h, 3D culture, 7 days, CTG.
Excerpt: as §1, §2, §3

The subject of experiment [3] is KRAS WT human gastric cancer cell MKN1. Briefly: 3D cell proliferation inhibition assay, MKN1. As to conditions: MKN-1, 168 h, 3D culture, 7 days, CTG.
Excerpt: as §1, §2, §3

For experiment [4], the system named is KRAS G12C mutant human non-small cell lung cancer cell NCI-H358. Kind of experiment: 3D cell proliferation inhibition assay, NCI-H358. The conditions noted are these: NCI-H358, 168 h, 3D culture, 7 days, CTG.
Excerpt: as §1, §2, §3

The target in experiment [5] is T1, KRAS G12V protein in SW900 cells (Homo sapiens, UniProt P01116, G12V).
T1 construct: endogenous in cells; host or cells: SW900
Briefly: KRAS degradation assay (Western Blot) in SW900 cells. The conditions noted are these: 24 h. The source says: Test Example 5: KRAS G12C, KRAS G12D, KRAS G12V, KRAS G13D, and KRAS WT (Expanded) Degradation Assays
The degradation effect of the compounds on KRAS was investigated on KRAS G12C mutant human non-small cell lung cancer cell NCI-H358, KRAS G12D mutant human metastatic pancreatic cancer cell AsPc-1, KRAS G12D mutant human lung cancer cell A427, KRAS G12V mutant human colorectal cancer cell SW620, KRAS G12V mutant human lung cancer cell SW900, KRAS G13D mutant human colorectal cancer epithelial cell DLD-1, and KRAS WT human gastric cancer cell MKN-1. The specific procedures were as follows: 0.95 mL of cells were seeded into each well of a 24-well cell culture plate to achieve a cell density of 5×10^5 cells/well; and the cell plate was incubated in an incubator at 37° C. with 5% CO2 overnight. Then 50 μL of the compound solution after dilution was added to each of the wells with the corresponding cells, so that the final concentration of the compound was in a range of 0.03-3000 nM. The final concentration of DMSO was 0.25%. After the compounds were added, the cell plate was incubated in an incubator at 37° C. with 5% CO2 for 24 h. The culture medium in the 24-well cell culture plate was then removed, and the plate was washed twice with 1×PBS (KeyGEN). 120 μL of RIPA (strong) lysis buffer (Beyotime) (supplemented with 1 mM phenylmethylsulfonyl fluoride, a protease inhibitor mixture (Beyotime), and a protease phosphatase inhibitor mixture (Beyotime)) was added to lyse adherent SW900 cells at the bottom of the cell culture plate. After the plate was left to stand on ice for 30 min, the protein lysate in each well was transferred to a 1.5 mL centrifuge tube and centrifuged at 15000 g for 20 min at 4° C. The cell lysate supernatants after centrifugation were cryopreserved in a refrigerator at −80° C. for later use.
After the samples of the cell lysate supernatants that had been prepared were thawed from the refrigerator at −80° C., the total protein concentrations of the cell lysates were determined using a BCA protein quantification kit (Tiangen). The total protein concentrations of the samples were then adjusted to 0.5 μg/μL with PBS and 5×SDS-PAGE protein loading buffer (Beyotime), and the samples were incubated in a water bath at 100° C. for 15 min. The samples were then incubated in an ice bath for 5 min and centrifuged at 14000 g for 1 min at 4° C., and the supernatants were mixed well as loading samples for the Western Blot assay. The samples were loaded into wells of a 10% precast gel (KeyGEN) with a loading volume of 10 μL (total protein: 5 μg), a sufficient Tris-MOPS-SDS running buffer (Adamas) was added, and then electrophoresis was performed at a constant voltage of 120 V for 55 min. After the electrophoresis, the proteins on the gel were transferred to PVDF membranes at a constant current of 250 mA for 55 min. After the membrane transfer, the PVDF membranes were incubated in 1× Quick Block blocking buffer (Beyotime)at room temperature for 30 min. After the blocking, the PVDF membranes were separately incubated at 4° C. overnight with the KRAS antibody (Abcam) diluted in a ratio of 1:1000 and the β-actin antibody (Abcam) diluted in a ratio of 1:2000 in 5% BSA as the diluent, and then washed with 1×TBST buffer (2.4 g of Tris, 8.8 g of NaCl, 1.5 mL of Tween 20, with pH adjusted to 7.4, with the volume brought to 1 L) 3 times for 10 min/time. The membranes were incubated with a secondary antibody (Abcam) diluted in 5% BSA at room temperature for 2 h, and then washed with 1×TBST buffer 3 times for 10 min/time. Finally, the membranes were incubated with Clarity Western ECL Substrate (BIO-RAD) for 5 min for luminescence and color development, and a ChemiScope 6200 Touch chemiluminescence imaging system (Clinx) was used for color development and protein mapping. Gray value analysis of the protein maps was performed using the chemiluminescence analysis software (Clinx). […]

Experiment [6] deals with KRAS G12D mutant human metastatic pancreatic cancer cell AsPc-1. Briefly: 3D cell proliferation inhibition assay, AsPc-1. As to conditions: ASPC1, 168 h, 3D culture, 7 days, CTG.
Excerpt: as §1, §2, §3

T1 sequence (P01116 1-188 isoform P01116-2 G12V): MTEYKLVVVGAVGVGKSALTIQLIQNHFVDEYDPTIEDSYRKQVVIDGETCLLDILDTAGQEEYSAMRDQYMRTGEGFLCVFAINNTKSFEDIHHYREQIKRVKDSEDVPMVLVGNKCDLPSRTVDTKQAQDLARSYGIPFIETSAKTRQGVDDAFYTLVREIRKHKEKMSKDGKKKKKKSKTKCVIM

One may read the IC50 as the concentration that inhibits the measured activity by half. A lower IC50 goes with greater potency in that assay. One may read the DC50 as the concentration at which degradation of the target reaches its halfway point. One may read the Dmax as the greatest extent of degradation seen. For `C#Cc1cccc2cc(O)cc(-c3ncc4c(N5CCC[C@@](C)(O)C5)nc(OCC5(CN6CCN(CC7CCC8(CC7)CCN(C(=O)c7ccc(C)c(N9CCC(=O)NC9=O)c7)CC8)CC6)CC5)nc4c3F)c12` [Example 27, (R)-1-(5-(9-((4-((1-(((7-(8-ethynyl-3-hydroxynaphthalen-1-yl)-8-fluoro-4-(3-hydroxy-3-methylpiperidin-1l-yl)pyrido[4,3-d]pyrimidin-2-yl)oxy)methyl)cyclopropyl)methyl)piperazin-1-yl)methyl)-3-azaspiro[5.5]undecane-3-carbonyl)-2-methylphenyl)dihydropyrimidine-2,4(1H,3H)-dione], the IC50 is at most 50 nM in experiment [1]; 3.47 nM in experiment [2]; at most 50 nM in experiment [3]; at most 50 nM in experiment [4]; at most 50 nM in experiment [6]. The compound further showed a DC50 in experiment [5] of at most 50 nM. In experiment [5], the Dmax is 80 to 100%.
Take `C#Cc1c(F)ccc2cc(O)cc(-c3ncc4c(N5CCCCCC5)nc(OCC5(CN6CCN(CC7CCC8(CC7)CCN(C(=O)c7ccc(C)c(N9CCC(=O)NC9=O)c7)CC8)CC6)CC5)nc4c3F)c12` [Example 37, 1-(5-(9-((4-((1-(((4-(azepan-1-yl)-7-(8-ethynyl-7-fluoro-3-hydroxynaphthalen-1-yl)-8-fluoropyrido[4,3-d]pyrimidin-2-yl)oxy)methyl)cyclopropyl)methyl)piperazin-1-yl)methyl)-3-azaspiro[5.5]undecane-3-carbonyl)-2-methylphenyl)dihydropyrimidine-2,4(1H,3H)-dione]: the concentration for half-maximal inhibition (IC50) in experiment [1] is at most 50 nM; in experiment [3], at most 50 nM; in experiment [6], 100 to 500 nM.
Regarding `C#Cc1cccc2cc(O)cc(-c3ncc4c(N5CCC[C@@](C)(O)C5)nc(OCC5(CN6CCC(CCOCC7CCN(C(=O)c8ccc(OC)c(N9CCC(=O)NC9=O)c8)CC7)CC6)CC5)nc4c3F)c12` [Example 38, (R)-1-(5-(4-((2-(1-((1-(((7-(8-ethynyl-3-hydroxynaphthalen-1-yl)-8-fluoro-4-(3-hydroxy-3-methylpiperidin-1-yl)pyrido[4,3-d]pyrimidin-2-yl)oxy)methyl)cyclopropyl)methyl)piperidin-4-yl)ethoxy)methyl)piperidine-1-carbonyl)-2-methoxyphenyl)dihydropyrimidine-2,4(1H,3H)-dione], the figures for the IC50 in experiment [1], in experiment [3] and in experiment [6] were 100 to 500 nM, at most 50 nM and 50 to 100 nM, respectively. In addition, in experiment [5], the DC50 was at most 50 nM. The greatest degradation seen (Dmax) in experiment [5] fell in the range of 80 to 100%.
On to `C#Cc1c(F)ccc2cc(O)cc(-c3ccc4c(N5CCC[C@@](C)(O)C5)nc(OCC5(CN6CCN(CC7CCC8(CC7)CCN(C(=O)c7ccc(C)c(N9CCC(=O)NC9=O)c7)CC8)CC6)CC5)nc4c3F)c12` [Example 41, (R)-1-(5-(9-((4-((1-(((7-(8-ethynyl-7-fluoro-3-hydroxynaphthalen-1-yl)-8-fluoro-4-(3-hydroxy-3-methylpiperidin-1-yl)quinazolin-2-yl)oxy)methyl)cyclopropyl)methyl)piperazin-1-yl)methyl)-3-azaspiro[5.5]undecane-3-carbonyl)-2-methylphenyl)dihydropyrimidine-2,4(1H,3H)-dione], for which the IC50 in experiment [1] is at most 50 nM; in experiment [2], 9.08 nM; in experiment [3], at most 50 nM; in experiment [6], 50 to 100 nM. The compound further displayed a DC50 in experiment [5] of at most 50 nM. The same compound returned a Dmax in experiment [5] of 80 to 100%.
Regarding `C#Cc1c(F)ccc2cc(O)cc(-c3ncc4c(N5CCC[C@@](C)(O)C5)nc(OCC5(CN6CCN(CCC#CC7CCN(C(=O)c8ccc(Cl)c(N9CCC(=O)NC9=O)c8)CC7)CC6)CC5)nc4c3F)c12` [Example 43, (R)-1-(2-chloro-5-(4-(4-(4-((1-(((7-(8-ethynyl-7-fluoro-3-hydroxynaphthalen-1-yl)-8-fluoro-4-(3-hydroxy-3-methylpiperidin-1-yl)pyrido[4,3-d]pyrimidin-2-yl)oxy)methyl)cyclopropyl)methyl)piperazin-1-yl)but-1-yn-1-yl)piperidine-1-carbonyl)phenyl)dihydropyrimidine-2,4(1H,3H)-dione], the IC50 was at most 50 nM in experiment [1], 50 to 100 nM in experiment [3] and 50 to 100 nM in experiment [6]. The compound further gave a half-maximal degradation concentration (DC50) in experiment [5] of at most 50 nM. Also, the Dmax in experiment [5] is 80 to 100%.
